Source: paper PMC3972730 (Bioorganic & medicinal chemistry letters, 2010)

Tests used:
[1] = Metabolite identification in human liver microsomes with NADPH; assay type: in vitro ADME; conditions: human liver microsomes in the presence of NADPH, LC-MS/MS
[2] = Microsomal stability in human liver microsomes; assay type: in vitro ADME; conditions: parent remaining after 30mins incubation with human liver microsomes

HLM % parent [2] [%]	SMILES	metabolites formed [1]
–	O=C(CCc1cnnn1-c1cccc(Cl)c1)c1ccccc1 [Compound 12e]	two metabolites were formed with masses equal to (parent+2) and (parent+16)
4	CC(C)(C)C(=O)CCc1cnnn1-c1ccccc1 [Compound 13h]	–
